Among the test systems are A498 renal; ACHN renal; COLO 205 colon; HCT-116 colon; NCI-H226 lung; OVCAR-5 ovarian; RPMI-8226 leukemia; SF-539 CNS; HCC-2998 colon; HL-60(TB) leukemia.
Common to all, as to test: inhibition of tumour cell growth, NCI panel, 48 h

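Compound exposure: 48 hours, 5 concentrations, 96-well plates. GI50: concentration for 50% inhibition of growth. TGI: total growth inhibition.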 Where only a bound is given, the exact number is not on record here.

Regarding `CC(=O)c1ccc(O)c(CN(C2CCCCC2)C2CCCCC2)c1O`, the TGI in the test with A498 renal, with ACHN renal, with COLO 205 colon, in the test with HCT-116 colon, with NCI-H226 lung and in the test on OVCAR-5 ovarian was greater than 100 µM in each case. For the same compound, the TGI in the test with RPMI-8226 leukemia and with SF-539 CNS was greater than 100 µM in each case.
For `N#CNC(N)=Nc1ccc(Cl)cc1`, the TGI in the test with A498 renal, in the test on ACHN renal, in the test on COLO 205 colon, in the test with HCC-2998 colon, with HCT-116 colon and in the test with NCI-H226 lung was greater than 100 µM in each case. Further, the TGI in the test with OVCAR-5 ovarian, in the test on RPMI-8226 leukemia and with SF-539 CNS was greater than 100 µM in each case.
For `CSc1nnc(COc2ccc(Cl)cc2)o1`, the TGI in the test on A498 renal, with ACHN renal, with COLO 205 colon, with HCT-116 colon, with OVCAR-5 ovarian and with SF-539 CNS was greater than 100 µM in each case.
For the compound `COc1ccc(C(=O)NCCN(C)C)c2nc3ccccc3nc12`, the TGI in the test with A498 renal is 16.3 µM; in the test on ACHN renal, greater than 100 µM; in the test with COLO 205 colon it was greater than 26.1 µM; with HCC-2998 colon it was 26.3 µM; in the test on HCT-116 colon it was 12.8 µM; with NCI-H226 lung it was 16.8 µM. Further, the TGI is 16 µM with OVCAR-5 ovarian, greater than 100 µM in the test on RPMI-8226 leukemia and 17.6 µM in the test with SF-539 CNS.
For the compound `c1ccc(N2N=C(c3ccco3)CC2c2ccco2)cc1` (stereo not drawn), the TGI is greater than 100 µM in the test with ACHN renal; greater than 100 µM with COLO 205 colon; greater than 100 µM in the test with HCT-116 colon; 73.4 µM in the test with HL-60(TB) leukemia; greater than 100 µM in the test with NCI-H226 lung; greater than 100 µM with OVCAR-5 ovarian. The TGI in the test on RPMI-8226 leukemia and in the test with SF-539 CNS was greater than 100 µM throughout.
On to `NC(=S)NN/C=C(\C=Nc1ccccc1)[N+](=O)[O-]`, for which the TGI in the test with ACHN renal, with COLO 205 colon, in the test on HCT-116 colon, in the test with HL-60(TB) leukemia, in the test with NCI-H226 lung and in the test on OVCAR-5 ovarian was greater than 100 µM each time. Besides, the TGI in the test with RPMI-8226 leukemia and in the test with SF-539 CNS was greater than 100 µM throughout.
For `C[N+](C)(C)CC1CCCCC1O` (stereo not drawn), the TGI with A498 renal, with ACHN renal, in the test with COLO 205 colon, in the test with HCC-2998 colon, in the test with HCT-116 colon and in the test on NCI-H226 lung was greater than 100 µM each time. Also, the TGI in the test with OVCAR-5 ovarian, in the test on RPMI-8226 leukemia and in the test with SF-539 CNS was greater than 100 µM throughout.
Take `Cc1ccc(NC(=O)c2cc(S(=O)(=O)N3C(=O)NC(=O)NS3(=O)=O)c(S)cc2Cl)cc1`: the GI50 in the test with A498 renal was 26.2 µM; with ACHN renal, 26.3 µM; in the test on COLO 205 colon it was 39.8 µM; in the test on HCC-2998 colon it was 28.5 µM; in the test with HCT-116 colon it was 30.3 µM; in the test on NCI-H226 lung, 30.6 µM. Moreover, the results for the GI50 in the test on OVCAR-5 ovarian, in the test on RPMI-8226 leukemia and with SF-539 CNS were 56.5 µM, 22 µM and 27.6 µM, respectively. Also, the TGI in the test with A498 renal was 68.5 µM; in the test on ACHN renal, 83.8 µM; in the test with COLO 205 colon it was greater than 100 µM; in the test with HCC-2998 colon, 60.5 µM; in the test with HCT-116 colon it was greater than 100 µM; with NCI-H226 lung, 76.6 µM. The TGI in the test on OVCAR-5 ovarian was greater than 100 µM; in the test on RPMI-8226 leukemia, 73.6 µM; in the test with SF-539 CNS it was 68 µM.
Take `CCOC(=O)NC(=O)c1cn(CCN2CCN(C(=O)CCCCCCCCCCC(=O)N3CCN(CCn4cc(C(=O)NC(=O)OCC)c(=O)[nH]c4=O)CC3)CC2)c(=O)[nH]c1=O`: the TGI with A498 renal, with ACHN renal, with COLO 205 colon, in the test on HCC-2998 colon, with HCT-116 colon and with NCI-H226 lung was greater than 100 µM in each case. Also, the TGI with OVCAR-5 ovarian, with RPMI-8226 leukemia and in the test on SF-539 CNS was greater than 100 µM throughout.
For the compound `O=c1cc(/C=C/c2ccccc2)[nH]c2cc3c(cc12)OCO3`, the TGI stood at 9.87 µM in the test on A498 renal; 28.3 µM with ACHN renal; 6.43 µM in the test on COLO 205 colon; 7.47 µM in the test on HCC-2998 colon; 13.4 µM in the test with HCT-116 colon; 10.8 µM in the test on NCI-H226 lung. The TGI is 14.2 µM in the test with OVCAR-5 ovarian, 3.18 µM in the test with RPMI-8226 leukemia and 4.69 µM in the test with SF-539 CNS. Also, the GI50 in the test with NCI-H226 lung is 2.91 µM.
For `O=C(O)c1ccccc1/C=N/N=C1c2ccccc2-c2ccccc21`, the TGI was greater than 100 µM in the test on A498 renal; greater than 100 µM in the test on ACHN renal; greater than 100 µM in the test with COLO 205 colon; greater than 100 µM with HCT-116 colon; 80.8 µM with HL-60(TB) leukemia; 41.6 µM in the test with NCI-H226 lung. Besides, the figures for the TGI in the test with OVCAR-5 ovarian, in the test with RPMI-8226 leukemia and in the test on SF-539 CNS were greater than 100 µM, 48.2 µM and greater than 100 µM, respectively.
`O=[N+]([O-])c1ccc(Sc2c3ccccc3nc3cc(Cl)ccc23)cc1`: the GI50 with A498 renal, in the test on COLO 205 colon, in the test on HCT-116 colon, in the test on NCI-H226 lung and in the test with OVCAR-5 ovarian was greater than 100 µM each time. Further, the TGI with A498 renal, in the test on COLO 205 colon, with HCT-116 colon, in the test on HL-60(TB) leukemia, with NCI-H226 lung and in the test with OVCAR-5 ovarian was greater than 100 µM in each case. Further, the TGI in the test with RPMI-8226 leukemia is greater than 100 µM.
Consider `CN(C)C(=S)/N=c1\ssc(=S)n1Cc1ccncc1`, for which the TGI in the test with A498 renal is 73.8 µM; in the test on ACHN renal it was 93.1 µM; in the test with COLO 205 colon it was greater than 100 µM; with HCC-2998 colon it was 57.3 µM; in the test with HCT-116 colon, 47.8 µM; with NCI-H226 lung, greater than 100 µM. Besides, the TGI was greater than 100 µM with OVCAR-5 ovarian and 48.4 µM in the test with SF-539 CNS.
`N/N=C1\C(=O)N(CCc2ccccc2)C(=O)C1C(=O)NCCc1ccccc1` (stereo not drawn): the TGI in the test on ACHN renal, in the test on HCT-116 colon, with HL-60(TB) leukemia, in the test with NCI-H226 lung, with RPMI-8226 leukemia and with SF-539 CNS was greater than 100 µM throughout.
On to `C[C@H]1CCCC(O)C(O)[C@@H]2C[C@H](O[Si](C)(C)C(C)(C)C)C[C@H]2[C@H](O[Si](C)(C)C(C)(C)C)C(O)C(O)C(=O)O1` (stereo partly drawn), for which the GI50 was 40.4 µM in the test on A498 renal; 14.4 µM with ACHN renal; greater than 100 µM in the test on COLO 205 colon; 17.5 µM in the test on HCC-2998 colon; 28.3 µM in the test with HCT-116 colon; 31.8 µM in the test on OVCAR-5 ovarian. Besides, the GI50 is greater than 100 µM with RPMI-8226 leukemia and 14.4 µM with SF-539 CNS. For the same compound, the TGI with A498 renal was greater than 100 µM; in the test with ACHN renal, 44.7 µM; in the test with COLO 205 colon, greater than 100 µM; in the test with HCC-2998 colon it was 50.3 µM; in the test with HCT-116 colon, greater than 100 µM; in the test on OVCAR-5 ovarian it was greater than 100 µM. Moreover, the TGI in the test with RPMI-8226 leukemia was greater than 100 µM; in the test with SF-539 CNS it was 30.7 µM.
For the compound `N#Cc1ccc(NC(=O)C(CC(=O)OCc2ccccc2)NC(=O)OCc2ccccc2)cc1` (stereo not drawn), the GI50 in the test on ACHN renal, in the test with COLO 205 colon, with HCT-116 colon, in the test with OVCAR-5 ovarian and in the test on RPMI-8226 leukemia was greater than 100 µM throughout. Besides, the TGI in the test with ACHN renal, in the test on COLO 205 colon, in the test with HCC-2998 colon, in the test with HCT-116 colon, with OVCAR-5 ovarian and in the test with RPMI-8226 leukemia was greater than 100 µM in each case.
Take `COC(=O)C(/C(=N\O)C(=O)Nc1cccc(Cl)c1C)c1cnc2ccccc2n1` (stereo not drawn): the TGI with A498 renal, in the test with ACHN renal, with COLO 205 colon, in the test on HCC-2998 colon, in the test with HCT-116 colon and in the test on NCI-H226 lung was greater than 100 µM in each case. Further, the TGI with OVCAR-5 ovarian and in the test on SF-539 CNS was greater than 100 µM each time.
Regarding `CSC1=Nc2ccccc2N=C(c2ccc(Cl)cc2)C1`, the TGI with ACHN renal, in the test with COLO 205 colon, in the test with HCT-116 colon, with HL-60(TB) leukemia, with NCI-H226 lung and with OVCAR-5 ovarian was greater than 100 µM each time. In addition, the TGI with RPMI-8226 leukemia and in the test with SF-539 CNS was greater than 100 µM each time.
Take `c1c[nH]c(CN2CCOCC2)n1`: the TGI in the test on A498 renal, in the test on ACHN renal, with COLO 205 colon, in the test with HCT-116 colon, in the test with HL-60(TB) leukemia and in the test with NCI-H226 lung was greater than 100 µM in each case. Besides, the TGI in the test on OVCAR-5 ovarian, in the test with RPMI-8226 leukemia and with SF-539 CNS was greater than 100 µM each time.
For the compound `CC(=O)OCC1OC(N2C(=O)C(=O)c3ccccc32)C(OC(C)=O)C(OC(C)=O)C1OC(C)=O` (stereo not drawn), the TGI in the test on A498 renal, in the test with ACHN renal, in the test on COLO 205 colon, in the test with HCC-2998 colon, in the test on NCI-H226 lung and in the test with RPMI-8226 leukemia was greater than 100 µM throughout. The same compound yielded a TGI with SF-539 CNS greater than 100 µM.

The values above are taken from PubChem BioAssay (NCI).
